Data set [1] deals with Skov-3 and A549 subcutaneous xenografts. Nature of the data set: Ex vivo tumour and organ biodistribution (IVIS Spectrum and FLARE intraoperative system). The settings on record: for ex vivo fluorescence signal in tumours (FLARE): Skov-3 tumour; for ex vivo fluorescence in the kidneys (FLARE): exposure time 1000 ms. It is filed as in vivo, NOD-scid IL2Rg^null mice. How it is done: (§1) All applicable institutional and/or national guidelines for the care and use of animals were followed. All experiments were approved by The Norwegian Animal Research Authority and conducted according to The European Convention for the Protection of Vertebrates Used for Scientific Purposes (Application ID 14128). NOD-scid IL2Rg^null mice (referred to as NSG) were housed in groups of ≤ 5 in individually ventilated cages changed twice per month and kept in a 12-h […] schedule at 21 °C at the Vivarium, University of Bergen. Observations for general condition and body weights were recorded twice per week and, when indicated, the animals were euthanised according to institutional guidelines. Skov-3 and A549 subcutaneous xenografts were established through bi-lateral flank injections of 5 × 10^6 cells, resuspended in 100 μL PBS containing 16.7% Matrigel (Corning Inc., MA, USA). Tumour volumes were measured weekly with a digital calliper and calculated using the ellipsoid volume formula: Volume = π (length × width × height)/6.
Organ biodistribution was assessed ex vivo for each conjugate in Skov-3 and in the control cell line, A549. Four hours after iv administration of 1, 2 and 3 and 24 h after injection of 4 and 5 (100 μl, 10 μM), mice were euthanised and tumours and organs were harvested. FLI was performed with the IVIS Spectrum, and subsequently, fluorescence was acquired using the FLARE® intraoperative system (Curadel LLC), employing the NIR channel #2 (λex = 760 ± 3 nm and λem = > 781 nm longpass) at three different exposure times (500, 1000 and 2000 ms) at a gain of 1. IVIS Spectrum data were analysed as previously described, and FLARE data were analysed using ImageJ (Fiji, version 1.52p, [29]) and the integrated FLARE analysis platform using grey scale values expressed in arbitrary units (AU).

The test system of data set [2] is Skov-3 subcutaneous xenografts. The experiment in a line: In vivo biodistribution and optimal time point FLI in subcutaneous Skov-3 xenograft model (IVIS Spectrum). Also on record: species or system NOD-scid IL2Rg^null mice. Conditions: for tumour to background ratio (TBR): mean ± SD; for excretion route: mice. As to the method: as §1
For biodistribution assessment of conjugates 1–5, mice were intravenously (iv) injected with 100 μL of a 10-μM conjugate solution when mean tumour volumes reached ≈150 mm^3, corresponding to a dose of […]. The dose was chosen on the basis of preclinical mouse models previously performed using folate-NIR (OTL38) FLI [28]. To determine the timepoint for the optimal TBR, optical imaging was performed at 0 h, 0.5 h, 1 h, 2 h, 4 h, 6 h, 8 h, 24 h and 48 h using the IVIS Spectrum. Fluorescence signals were analysed with the Living Imaging® software v4.5 (PerkinElmer Inc.) and expressed as average radiance (p/s/cm^2/sr). Regions of interest (ROI) were manually drawn around the subcutaneous tumours in the flanks and the adjacent tissue to calculate TBRs at all time points. Next, subcutaneous xenograft models were imaged at the pre-determined optimal time points, which were 4 h for conjugates 1, 2 and 3 and 24 h for conjugates 4 and 5.

The nature of data set [3]: Fluorescence spectroscopy (excitation and emission spectra). In kind it is physicochemical. As to the method: The spectral characteristics of the conjugates 1–5 were determined using a Spark 20M plate reader (Tecan, Switzerland). The emission and excitation of all conjugates were measured in triplicates with a bandwidth of 5 nm in a 96-well Half-Area Microplate at a concentration of 100 μM dissolved in phosphate buffered saline (PBS). The fluorescence intensity was plotted as normalised relative fluorescence units (RFU).
Using conjugates 1–5, we evaluated how the conjugation of the different fluorophores to EDAF (Fig. 1a) affected the optical properties. To do so, we defined their individual excitation and emission spectra, and determined the optimal FLI parameters. The different conjugates (Fig. 1b) were diluted in medium or in DMSO and the peak excitation and emission obtained are reported in Table 1, Fig. 1c and Fig. S17.

Data set [4] deals with Skov-3 and A549 subcutaneous xenografts. Nature of the data set: In vivo FLI at optimal time points, Skov-3 versus A549 xenografts (target specificity). Conditions: 4 h after iv injection, p < 0.05. Also on record: species or system NOD-scid IL2Rg^null mice. How it is done: as §1, with “Skov-3 and A549 subcutaneous xenografts were established through bi-lateral flank injections of 5 × 10^6 cells, resuspended in 100 μL PBS containing 16.7% Matrigel (Corning Inc., MA, USA).” left out
For biodistribution assessment of conjugates 1–5, mice were intravenously (iv) injected with 100 μL of a 10-μM conjugate solution when mean tumour volumes reached ≈150 mm^3, corresponding to a dose of 500 nmol/mouse. […] Fluorescence signals were analysed with the Living Imaging® software v4.5 (PerkinElmer Inc.) and expressed as average radiance (p/s/cm^2/sr). […] Next, subcutaneous xenograft models were imaged at the pre-determined optimal time points, which were 4 h for conjugates 1, 2 and 3 and 24 h for conjugates 4 and 5.

The mark [5] stands for this setting: 4 h after iv injection, exposure time 2000 ms.
Where [6] appears, read: 4 h after iv injection, Skov-3 subcutaneous xenograft.
Setting [7] is: 8 h after iv injection, Skov-3 subcutaneous xenograft.
Where [8] appears, read: 24 h after iv injection, exposure time 2000 ms.
Setting [9] is: Skov-3 xenografted mice, 24 h after iv injection.
The mark [10] stands for this setting: 24 h after iv injection, Skov-3 subcutaneous xenograft.

Take `CC1(C)C(/C=C/C2=C(Oc3ccc(CCC(=O)NCCNC(=O)CC[C@H](NC(=O)c4ccc(NCc5cnc6nc(N)[nH]c(=O)c6n5)cc4)C(=O)O)cc3)C(=C/C=C3/N(CCC[N+](C)(C)C)c4ccc(S(=O)(=O)O)cc4C3(C)C)/CCC2)=[N+](CCC[N+](C)(C)C)c2ccc(S(=O)(=O)O)cc21` [Conjugate 1, 2-((E)-2-((E)-2-(4-(3-((2-((S)-4-(4-(((2-amino-4-oxo-3,4-dihydropteridin-6-yl)methyl)amino)benzamido)-4-carboxybutanamido)ethyl)amino)-3-oxopropyl)phenoxy)-3-(2-((E)-3,3-dimethyl-5-sulfonato-1-(3-(trimethylammonio)propyl)indolin-2-ylidene)ethylidene)cyclohex-1-en-1-yl)vinyl)-3,3-dimethyl-1-(3-(trimethylammonio)propyl)-3H-indol-1-ium-5-sulfonate]: the “ex vivo fluorescence signal in tumours (FLARE)” value (from here on “ex vivo fluorescence signal”) in data set [1] (setting [5]) is recorded as 156.9 ± 22.0 AU. The “tumour to background ratio (TBR)” value in data set [2] (setting [6]) is reported as 1.9 ± 0.3. Besides, in data set [2] (setting [7]), the “tumour to background ratio (TBR)” value worked out at 2.0 ± 0.4. Also, in data set [2] (24 h after iv injection), the “residual fluorescence in healthy organs in vivo” value is “residual fluorescence signal in the kidneys”. In addition, the excretion route entry in data set [2] (iv injection) is “renally cleared”. Besides, in data set [3] (DMSO), the Stokes shift worked out at 24 nm, the λem turned out to be 816 nm and the λex is 792 nm. For the same compound, in data set [3] (culture medium), the Stokes shift turned out to be 25 nm, the λem came to 802 nm and the λex was determined as 777 nm.

`CC1(C)C(/C=C/C2=C(c3ccc(CCC(=O)NCCNC(=O)CC[C@H](NC(=O)c4ccc(NCc5cnc6nc(N)[nH]c(=O)c6n5)cc4)C(=O)O)cc3)C(=C/C=C3/N(CCC[N+](C)(C)C)c4ccc(S(=O)(=O)O)cc4C3(C)C)/CCC2)=[N+](CCC[N+](C)(C)C)c2ccc(S(=O)(=O)O)cc21` [Conjugate 2, 2-((E)-2-((E)-4'-(3-((2-((S)-4-(4-(((2-amino-4-oxo-3,4-dihydropteridin-6-yl)methyl)amino)benzamido)-4-carboxybutanamido)ethyl)amino)-3-oxopropyl)-6-(2-((E)-3,3-dimethyl-5-sulfonato-1-(3-(trimethylammonio)propyl)indolin-2-ylidene)ethylidene)-3,4,5,6-tetrahydro-[1,1'-biphenyl]-2-yl)vinyl)-3,3-dimethyl-1-(3-(trimethylammonio)propyl)-3H-indol-1-ium-5-sulfonate]: the “ex vivo fluorescence signal” value in data set [1] (setting [5]) is 213.1 ± 51.0 AU. Also, the “tumour to background ratio (TBR)” value in data set [2] (setting [6]) stood at 1.8 ± 0.2. Further, in data set [2] (setting [7]), the “tumour to background ratio (TBR)” value was 2.0 ± 0.2. Further, the “time that the fluorescence signal in Skov-3 tumours was sustained” value in data set [2] (after iv injection, last imaging time point 48 h) is recorded as “up to 48 h”. Moreover, in data set [2] (iv injection), the excretion route result is “renally cleared”. Further, in data set [3] (DMSO), the Stokes shift worked out at 28 nm, the λem is 802 nm and the λex is 774 nm. For the same compound, in data set [3] (culture medium), the Stokes shift stood at 28 nm, the λem is 788 nm and the λex is 760 nm. Besides, the “difference in average radiance between Skov-3 and A549 tumours” value in data set [4] was “significant difference”.

`CC1(C)C(/C=C/C2=C(Oc3ccc(S(=O)(=O)O)cc3)C(=C/C=C3/N(CCCCS(=O)(=O)O)c4ccc(S(=O)(=O)[O-])cc4C3(C)C)/CCC2)=[N+](CCCCCC(=O)NCCNC(=O)CC[C@H](NC(=O)c2ccc(NCc3cnc4nc(N)[nH]c(=O)c4n3)cc2)C(=O)O)c2ccc(S(=O)(=O)O)cc21` [Conjugate 3, 1-(6-((2-((S)-4-(4-(((2-amino-4-oxo-3,4-dihydropteridin-6-yl)methyl)amino)benzamido)-4-carboxybutanamido)ethyl)amino)-6-oxohexyl)-2-((E)-2-((E)-3-(2-((E)-3,3-dimethyl-5-sulfonato-1-(4-sulfonatobutyl)indolin-2-ylidene)ethylidene)-2-(4-sulfonatophenoxy)cyclohex-1-en-1-yl)vinyl)-3,3-dimethyl-3H-indol-1-ium-5-sulfonate]: the “ex vivo fluorescence signal” value in data set [1] (setting [5]) is 189.7 ± 27.1 AU. For the same compound, the “ex vivo fluorescence in the kidneys (FLARE)” value in data set [1] (Skov-3 xenografted mice, 4 h after iv injection) was 913.6 ± 248.9 AU. Besides, in data set [2] (setting [6]), the “tumour to background ratio (TBR)” value is recorded as 1.2 ± 0.2. The “tumour to background ratio (TBR)” value in data set [2] (setting [7]) turned out to be 1.4 ± 0.3. Besides, the “residual fluorescence in healthy organs in vivo” value in data set [2] (24 h after iv injection) was “residual fluorescence signal in the kidneys”. Moreover, in data set [2] (iv injection), the excretion route result is recorded as “renally cleared”. In addition, in data set [3] (DMSO), the Stokes shift turned out to be 28 nm, the λem is recorded as 826 nm and the λex is recorded as 798 nm. Also, in data set [3] (culture medium), the Stokes shift turned out to be 25 nm, the λem came out at 808 nm and the λex worked out at 783 nm.

`CC1(C)C(/C=C/C=C/C=C/C=C2\N(CCCCCC(=O)NCCNC(=O)CC[C@H](NC(=O)c3ccc(NCc4cnc5nc(N)[nH]c(=O)c5n4)cc3)C(=O)O)c3ccc4ccccc4c3C2(C)C)=[N+](CCCCS(=O)(=O)[O-])c2ccc3ccccc3c21` [Conjugate 4, 4-(2-((1E,3E,5E,7Z)-7-(3-(6-((2-((S)-4-(4-(((2-amino-4-oxo-3,4-dihydropteridin-6-yl)methyl)amino)benzamido)-4-carboxybutanamido)ethyl)amino)-6-oxohexyl)-1,1-dimethyl-1,3-dihydro-2H-benzo[e]indol-2-ylidene)hepta-1,3,5-trien-1-yl)-1,1-dimethyl-1H-benzo[e]indol-3-ium-3-yl)butane-1-sulfonate]: the “ex vivo organ accumulation (IVIS Spectrum)” value in data set [1] (24 h after iv injection) is “mainly in the liver”. The “ex vivo fluorescence signal” value in data set [1] (setting [8]) amounted to 56.4 ± 4.1 AU. Besides, in data set [1] (setting [9]), the “ex vivo fluorescence in the kidneys (FLARE)” value is listed as 100.4 ± 37.8 AU. Besides, the “ex vivo fluorescence intensity in the liver (FLARE)” value in data set [1] (Skov-3 xenografted mice, 24 h after iv injection, exposure time 2000 ms) is 283.3 ± 38.7 AU. Further, the “tumour to background ratio (TBR)” value in data set [2] (0.5 h after iv injection, Skov-3 subcutaneous xenograft) came out at 1.3 ± 0.3; in data set [2] (setting [10]) it was 1.0 ± 0.1. Further, in data set [2] (Skov-3 subcutaneous xenograft, iv injection), the accumulation in tumours result is listed as “no accumulation in tumours”. Further, the excretion route entry in data set [2] (iv injection) is given as “hepatobiliary excretion”. In addition, the Stokes shift was found to be 42 nm in data set [3] (DMSO) and 36 nm in data set [3] (culture medium). The λem came out at 832 nm in data set [3] (DMSO) and 820 nm in data set [3] (culture medium). Besides, the figures for the λex in data set [3] (DMSO) and in data set [3] (culture medium) were 790 nm and 784 nm, respectively.

In the case of `C[N+]1=C(/C=C/C2=C(Cl)C(=C/C=C3/N(CCCCCC(=O)NCCNC(=O)CC[C@H](NC(=O)c4ccc(NCc5cnc6nc(N)[nH]c(=O)c6n5)cc4)C(=O)O)c4ccccc4C3(C)C)/CCC2)C(C)(C)c2ccccc21` [Conjugate 5, 2-((E)-2-((E)-3-(2-((E)-1-(6-((2-((S)-4-(4-(((2-amino-4-oxo-3,4-dihydropteridin-6-yl)methyl)amino)benzamido)-4-carboxybutanamido)ethyl)amino)-6-oxohexyl)-3,3-dimethylindolin-2-ylidene)ethylidene)-2-chlorocyclohex-1-en-1-yl)vinyl)-1,3,3-trimethyl-3H-indol-1-ium], in data set [1] (24 h after iv injection), the “ex vivo organ accumulation (IVIS Spectrum)” value was “in the stomach”. The “ex vivo fluorescence signal” value in data set [1] (setting [8]) is reported as 60.9 ± 6.3 AU. The “ex vivo fluorescence in the kidneys (FLARE)” value in data set [1] (setting [9]) is 63.9 ± 11.3 AU. Moreover, the “tumour to background ratio (TBR)” value in data set [2] (setting [10]) amounted to 2.1 ± 0.6. Further, the excretion route entry in data set [2] (iv injection) was “hepatobiliary excretion”. Further, the “time at which tumour fluorescence became evident” value in data set [2] (post-injection, Skov-3 subcutaneous xenograft) is on record as 4 h. In addition, in data set [3] (DMSO), the Stokes shift is on record as 24 nm, the λem amounted to 820 nm and the λex is 796 nm. In data set [3] (culture medium), the Stokes shift is on record as 15 nm, the λem stood at 804 nm and the λex is reported as 789 nm.
